What is called IC50 is the concentration that inhibits the measured activity by half. For orientation: EC50 means the concentration that produces a half-maximal response.

The source of these data is patent US20230202989A1, “COMPOUNDS” (JANSSEN PHARMACEUTICA NV, priority 2020, published 2023).

Like-named read-outs stand apart in the source and are kept apart here.

In one assay the test system is IL-1β. The assay is described as follows: PBMC assay: inhibition of IL-1β release after LPS stimulation (MSD). Type of assay: cell-based. The conditions noted are these: human PBMCs, 100 ng/ml LPS for 6 hrs, MSD, 96 well plates, read-out: IL1β IC50. The method, boiled down: (§1)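 Cryopreserved human PBMCs (7.5×10^4/well) in RPMI/10% FBS were preincubated with serially diluted compound for 30 min at 37 °C, then stimulated with 100 ng/ml LPS for 6 h. Supernatant IL-1β and TNF measured by MSD. IC50 derived for IL-1β, EC50 for TNF.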

For the next assay, the system named is TNF. The assay can be described thus: PBMC assay: TNF cytokine levels after LPS stimulation (MSD). In kind it is cell-based. The conditions noted are these: human PBMCs, 100 ng/ml LPS for 6 hrs. In short, it runs like this: as §1

As to `CC(C)c1nn(CC(=O)Nc2ccc3nncn3n2)c(=O)c2ccc(C3CC3)cc12` [X-1008], the IC50 in the assay with IL-1β (Homo sapiens, PBMC, 6 h) amounted to 33 nM. Also, in the assay with TNF (Homo sapiens, PBMC, 6 h), the EC50 turned out to be 2610 nM.
Consider `CC(C)c1ccc2c(=O)n(CC(=O)Nc3ccc4nncn4n3)nc(C(C)C)c2c1` [X-1009], for which the IC50 in the assay with IL-1β (Homo sapiens, PBMC, 6 h) was determined as 45 nM. A half-maximal response with TNF (Homo sapiens, PBMC, 6 h) (EC50) required 2830 nM.
The like results for `CC(C)c1nn(CC(=O)Nc2ccc3nncn3n2)c(=O)c2ccc(C(C)(C)F)cc12` [X-1010] were, in that order, 17 nM and 3110 nM.
The like results for `CC(C)c1nn(CC(=O)Nc2ccc3nccn3n2)c(=O)c2ccc(C(C)(C)F)cc12` [X-1011] were, in that order, 89 nM and 7560 nM.
On to `CC(C)c1nn(CC(=O)Nc2ccc3nncn3n2)c(=O)c2ccc(C3CCC3)cc12` [X-1012], for which the IC50 with IL-1β (Homo sapiens, PBMC, 6 h) came out at 180 nM. The EC50 with TNF (Homo sapiens, PBMC, 6 h) amounted to 1080 nM.
For the compound `CCc1nn(CC(=O)Nc2c(-c3ccnc(OC)c3)ccc3c2CCC3)c(=O)c2ccc(Br)cc12` [X-1013], the IC50 in the assay with IL-1β (Homo sapiens, PBMC, 6 h) is more than 20000 nM. The compound further gave an EC50 with TNF (Homo sapiens, PBMC, 6 h) of more than 20000 nM.
On to `CC(=O)c1nn(CC(=O)Nc2ccn(C(C)C)n2)c(=O)c2ccc(Br)cc12` [X-1014, 2-(4-acetyl-6-bromo-1-oxophthalazin-2(1H)-yl)-N-(1-isopropyl-1H-pyrazol-3-yl)acetamide], for which the IC50 in the assay on IL-1β (Homo sapiens, PBMC, 6 h) is more than 20000 nM. In the assay on TNF (Homo sapiens, PBMC, 6 h), this compound returned an EC50 of more than 20000 nM.
Take `COC(C)c1nn(CC(=O)Nc2ccnnc2)c(=O)c2ccc(Br)cc12` (centres unmarked) [X-1015]: the IC50 in the assay on IL-1β (Homo sapiens, PBMC, 6 h) came to 2130 nM. Besides, the EC50 in the assay on TNF (Homo sapiens, PBMC, 6 h) was more than 20000 nM.
In the case of `COC(C)c1nn(CC(=O)Nc2ccncn2)c(=O)c2ccc(Br)cc12` (centres unmarked) [X-1016], in the assay on IL-1β (Homo sapiens, PBMC, 6 h), the IC50 was found to be 819 nM. For the same compound, the EC50 in the assay on TNF (Homo sapiens, PBMC, 6 h) was more than 20000 nM.
Consider `COC(C)c1nn(CC(=O)Nc2ccc3nncn3c2)c(=O)c2ccc(Br)cc12` (centres unmarked) [X-1017], for which the half-inhibitory concentration (IC50) in the assay with IL-1β (Homo sapiens, PBMC, 6 h) came to 506 nM. The compound also registered an EC50 in the assay on TNF (Homo sapiens, PBMC, 6 h) of more than 20000 nM.
The like results for `COC(C)c1nn(CC(=O)N[C@H]2C[C@@](C)(O)C2)c(=O)c2ccc(Br)cc12` (some centres unmarked) [X-1018] were, in that order, 832 nM and more than 20000 nM.
For `O=C(Cn1nc(C(F)F)c2cc(Br)ccc2c1=O)Nc1ccc2nncn2c1` [X-1019] the same measures were 183 nM and more than 20000 nM.
For the compound `C[C@]1(O)C[C@@H](NC(=O)Cn2nc(C(F)F)c3cc(Br)ccc3c2=O)C1` [X-1020], in the assay with IL-1β (Homo sapiens, PBMC, 6 h), the half-maximal inhibitory concentration (IC50) was 133 nM. The same compound yielded an EC50 in the assay with TNF (Homo sapiens, PBMC, 6 h) of more than 20000 nM.
Take `Cn1nc(NC(=O)Cn2nc(C(F)F)c3cc(Br)ccc3c2=O)ccc1=O` [X-1021]: the IC50 with IL-1β (Homo sapiens, PBMC, 6 h) was 437 nM. In the assay with TNF (Homo sapiens, PBMC, 6 h), this compound gave an EC50 of more than 20000 nM.
As for `C[C@]1(O)C[C@@H](NC(=O)Cn2nc(C3CC3)c3cc(Br)ccc3c2=O)C1` [X-1022], the IC50 in the assay with IL-1β (Homo sapiens, PBMC, 6 h) was 57 nM. This compound also had an EC50 in the assay on TNF (Homo sapiens, PBMC, 6 h) of more than 20000 nM.
With `O=C(Cn1nc(C2CC2)c2cc(Br)ccc2c1=O)Nc1ccc2nncn2c1` [X-1023], the IC50 in the assay on IL-1β (Homo sapiens, PBMC, 6 h) is 101 nM. In addition, in the assay on TNF (Homo sapiens, PBMC, 6 h), the EC50 was more than 20000 nM.
For `Cn1nc(NC(=O)Cn2nc(C3CC3)c3cc(Br)ccc3c2=O)ccc1=O` [X-1024], the IC50 in the assay on IL-1β (Homo sapiens, PBMC, 6 h) came to 497 nM. This compound also showed an EC50 with TNF (Homo sapiens, PBMC, 6 h) of more than 20000 nM.
Regarding `COc1ccc2c(=O)n(CC(=O)Nc3ccncn3)nc(C(C)C)c2c1` [X-1025], the IC50 with IL-1β was 2520 nM. This compound returned an EC50 in the assay on TNF of more than 20000 nM.
In the case of `CCc1nn(CC(=O)Nc2ccn(C(C)C)n2)c(=O)c2ccc(C3CC3)cc12` [X-1026], the IC50 with IL-1β (Homo sapiens, PBMC, 6 h) is more than 20000 nM. The compound also yielded an EC50 with TNF (Homo sapiens, PBMC, 6 h) of more than 20000 nM.
Consider `CC(C)c1nn(CC(=O)N[C@H]2C[C@@](C)(O)C2)c(=O)c2ccc(Cl)cc12` [X-1027], for which the IC50 with IL-1β (Homo sapiens, PBMC, 6 h) came to 60 nM. In the assay with TNF (Homo sapiens, PBMC, 6 h), this compound yielded an EC50 of more than 20000 nM.
`CC(C)c1nn(CC(=O)Nc2ccncn2)c(=O)c2ccc(Cl)cc12` [X-1028]: in the assay with IL-1β (Homo sapiens, PBMC, 6 h), the IC50 worked out at 128 nM. For the same compound, in the assay with TNF (Homo sapiens, PBMC, 6 h), the EC50 was more than 20000 nM.
With `CC(C)c1nn(CC(=O)Nc2ccc3nncn3c2)c(=O)c2ccc(Cl)cc12` [X-1029], in the assay with IL-1β (Homo sapiens, PBMC, 6 h), the IC50 was determined as 41 nM. In the assay with TNF (Homo sapiens, PBMC, 6 h), this compound displayed an EC50 of more than 20000 nM.
As to `CC(C)c1nn(CC(=O)Nc2ccc3cncn3c2)c(=O)c2ccc(Cl)cc12` [X-1030], the IC50 in the assay on IL-1β (Homo sapiens, PBMC, 6 h) came to 436 nM. Also, the EC50 with TNF (Homo sapiens, PBMC, 6 h) is more than 20000 nM.
Consider `CC(C)c1nn(CC(=O)Nc2ccc3c(c2)[nH]c(=O)n3C)c(=O)c2ccc(Br)cc12` [X-1031], for which, in the assay on IL-1β (Homo sapiens, PBMC, 6 h), the IC50 worked out at 30 nM. The midpoint of the response with TNF (Homo sapiens, PBMC, 6 h), the EC50, lay at 4640 nM.
With `CC(C)c1nn(CC(=O)Nc2ccc3cnn(C)c3c2)c(=O)c2ccc(Br)cc12` [X-1033], the IC50 with IL-1β (Homo sapiens, PBMC, 6 h) came to 848 nM. Moreover, the EC50 with TNF (Homo sapiens, PBMC, 6 h) was more than 20000 nM.
Turning to `CC(C)c1nn(CC(=O)Nc2ccc3cnn(C(F)F)c3c2)c(=O)c2ccc(Br)cc12` [X-1034], the IC50 with IL-1β (Homo sapiens, PBMC, 6 h) is 3010 nM. Besides, in the assay on TNF (Homo sapiens, PBMC, 6 h), the EC50 is more than 20000 nM.
For `CC(C)c1nn(CC(=O)N[C@@H]2CCCN(C3CC3)C2)c(=O)c2ccc(Br)cc12` [X-1035], the IC50 with IL-1β (Homo sapiens, PBMC, 6 h) is 32 nM. Further, the concentration giving a half-maximal response (EC50) with TNF (Homo sapiens, PBMC, 6 h) was more than 20000 nM.
For `CC(C)c1nn(CC(=O)Nc2ccc(=O)n(C)n2)c(=O)c2ccc(Br)cc12` [X-1036], in the assay with IL-1β (Homo sapiens, PBMC, 6 h), the IC50 turned out to be 141 nM. The same compound yielded an EC50 with TNF (Homo sapiens, PBMC, 6 h) of more than 20000 nM.
For `CCc1nn(CC(=O)N[C@H]2C[C@@](C)(O)C2)c(=O)c2ccc(N(C)C)cc12` [X-1037] the same measures were 2340 nM and more than 20000 nM.
As to `CC(C)c1nn(CC(=O)Nc2ccncn2)c(=O)c2ccc(OC(F)(F)F)cc12` [X-1038], the IC50 in the assay on IL-1β (Homo sapiens, PBMC, 6 h) came out at 2510 nM. In the assay on TNF (Homo sapiens, PBMC, 6 h), the EC50 turned out to be 9550 nM.
`CC(C)c1nn(CC(=O)N[C@H]2C[C@@](C)(O)C2)c(=O)c2ccc(OCC(F)(F)F)cc12` [X-1039]: in the assay with IL-1β (Homo sapiens, PBMC, 6 h), the IC50 is 13000 nM. Moreover, the EC50 in the assay with TNF (Homo sapiens, PBMC, 6 h) is more than 20000 nM.
Regarding `CC(C)c1nn(CC(=O)Nc2ccc3nncn3c2)c(=O)c2ccc(OC(F)(F)F)cc12` [X-1040], the IC50 with IL-1β (Homo sapiens, PBMC, 6 h) was found to be 1130 nM. In the assay on TNF (Homo sapiens, PBMC, 6 h), this compound yielded an EC50 of 7190 nM.
The like results for `CC(C)c1nn(CC(=O)N[C@H]2C[C@@](C)(O)C2)c(=O)c2ccc(OC(F)(F)F)cc12` [X-1041] were, in that order, 1330 nM and more than 20000 nM.
For the compound `CCOC(C)c1ccc2c(=O)n(CC(=O)N[C@H]3C[C@@](C)(O)C3)nc(C(C)C)c2c1` (some centres unmarked) [X-1042], the IC50 in the assay with IL-1β (Homo sapiens, PBMC, 6 h) was determined as 12200 nM. In addition, the EC50 with TNF (Homo sapiens, PBMC, 6 h) is more than 20000 nM.
With `CC(C)c1nn(CC(=O)N[C@H]2C[C@@](C)(O)C2)c(=O)c2ccc(C(C)(C)O)cc12` [X-1043], the IC50 with IL-1β (Homo sapiens, PBMC, 6 h) turned out to be 11000 nM. The compound further displayed an EC50 with TNF (Homo sapiens, PBMC, 6 h) of more than 20000 nM.
Consider `CC(C)c1nn(CC(=O)Nc2ccncn2)c(=O)c2ccc(C(C)(C)O)cc12` [X-1044], for which the IC50 in the assay with IL-1β (Homo sapiens, PBMC, 6 h) was found to be 4380 nM. Further, in the assay with TNF (Homo sapiens, PBMC, 6 h), the EC50 was found to be 8290 nM.
For `CC(C)c1nn(CC(=O)Nc2ccc3nncn3c2)c(=O)c2ccc(C(C)(C)O)cc12` [X-1045], in the assay on IL-1β (Homo sapiens, PBMC, 6 h), the IC50 was 3760 nM. In the assay with TNF (Homo sapiens, PBMC, 6 h), the concentration for a half-maximal effect (EC50) was more than 20000 nM.
The like results for `CC(C)c1nn(CC(=O)Nc2ccc3nncn3c2)c(=O)c2ccc(N(C)C)cc12` [X-1046] were, in that order, 422 nM and more than 20000 nM.
`CC(C)c1nn(CC(=O)N[C@H]2C[C@@](C)(O)C2)c(=O)c2ccc(N(C)C)cc12` [X-1047]: in the assay on IL-1β (Homo sapiens, PBMC, 6 h), the IC50 stood at 1570 nM. The same compound returned an EC50 in the assay on TNF (Homo sapiens, PBMC, 6 h) of more than 20000 nM.
Take `CC(C)c1nn(CC(=O)Nc2ccc3nncn3c2)c(=O)c2ccc(C(C)(C)C)cc12` [X-1048]: the IC50 with IL-1β (Homo sapiens, PBMC, 6 h) turned out to be 270 nM. This compound also displayed an EC50 in the assay on TNF (Homo sapiens, PBMC, 6 h) of 8080 nM.
The like results for `CC(C)c1nn(CC(=O)N[C@H]2C[C@@](C)(O)C2)c(=O)c2ccc(C(C)(C)C)cc12` [X-1049] were, in that order, 426 nM and more than 20000 nM.
As for `CC(C)c1nn(CC(=O)Nc2ccncn2)c(=O)c2ccc(C(C)(C)C)cc12` [X-1050], the IC50 in the assay with IL-1β (Homo sapiens, PBMC, 6 h) came to 990 nM. In the assay with TNF (Homo sapiens, PBMC, 6 h), this compound registered an EC50 of more than 20000 nM.
For the compound `CC(C)c1nn(CC(=O)Nc2ccc3nncn3n2)c(=O)c2ccc(C(C)(C)C)cc12` [X-1051], in the assay with IL-1β (Homo sapiens, PBMC, 6 h), the IC50 came out at 106 nM. Moreover, it took 7020 nM to reach a half-maximal effect with TNF (Homo sapiens, PBMC, 6 h) (EC50).
